Values after ≈ are worked out from the molar mass of the structure shown. Where two headings read alike, the source gives them in different places. Where a SMILES comes first, the peptide text is derived from it.
Tests used:
[1] = test system: Klebsiella pneumoniae NCTC 13368; type: cell-based; conditions: for MIC, Stability in serum (MH) / MIC on initial panels / MIC: in µg/mL; for MIC on initial panels: medium and unit not given
[2] = test system: Klebsiella pneumoniae M6; type: cell-based; conditions: for MIC on initial panels: medium and unit not given
[3] = test system: EMR Staphylococcus aureus-16 (EMRSA-16); type: cell-based; conditions: EMRSA16; for MIC on initial panels: medium and unit not given, in µg/mL; for MIC: untitled table, medium/unit inferred, values match RPMI of Table 2
[4] = test system: P. aeruginosa RP73; assay: Antibacterial activity assay (broth microdilution MIC); type: cell-based, Pseudomonas aeruginosa; conditions: in µg/mL; for MIC on initial panels: medium and unit not given; for MIC: untitled table, medium/unit not given
Experimental: Antibacterial activity assay.
(§1) Synergy experiments were performed following a checkerboard protocol.

[5] = test system: HEK293; assay: Cytotoxicity assay (XTT); type: cell-based, human; conditions: for Toxicity HEK293: unit not given; for Toxicity HEK293 (EC50), Peptide concentration: value printed in parentheses
Experimental: Cytotoxicity assay. HeLa and HEK293 cell lines were purchased from ECACC and cultured in Eagle's Minimum Essential Media (EMEM) containing glutamine, supplemented with 10% FBS and 1× non-essential amino acids (NEAA) at 37° C., 10% CO2. Cytotoxicity was measured by incubating starter cultures of cells for 24 hours in a 96 well plate, gently removing the supernatant and replacing it with dilutions of peptides and controls, incubating for a further 24 hours and then staining of the cells with the second generation tetrazolium dye, XTT. […]

[6] = test system: A549; assay: Cytotoxicity assay; type: cell-based; conditions: value printed in parentheses
[7] = test system: Calu-3; assay: Cytotoxicity assay; type: cell-based; conditions: value printed in parentheses
[8] = Electrophysiology (Port-a-Patch patch-clamp) on model membranes
Description: The depth of insertion into each membrane is shown as the Z-position for each residue, averaged over all four peptides, relative to the phosphate group plane in the upper POPE/POPG (A/E/I) or POPG (C/G/K) bilayer leaflet in six MD simulations. Positive or negative values indicate the peptides are below or above the phosphate group. Representative current traces illustrating membrane activity when DPhPE/DPhPG (B/F/J) or DPhPG (D/H/L) model membranes are challenged with each peptide at the indicated concentration (lowest concentration that induced detectable activity). Data is for pleurocidin (A-D), pleurocidin-KR (E-H) and pleurocidin-VA (I-L). Membrane disordering by each peptide in mixed POPE/POPG bilayers is shown with data obtained from ^2H solid-state NMR (M/N) or from MD simulations where order parameters are calculated for all lipids within 4 Å of a peptide (O/P).
Molecular dynamics simulations. Simulations were carried out on either the ARCHER Cray XC30 supercomputer, or Dell Precision quad core T3400 or T3500 workstations equipped with a 1 kW Power supply (PSU) and two NVIDA PNY GeForce GTX570 or GTX580 graphics cards using Gromacs.^53 The CHARMM36 all-atom force field was used in all simulations^54-56. All simulations were run, as described previously^20 and for a total of 200 nanoseconds and repeated twice, with peptides inserted at different positions and orientations, giving a total of approximately 4.0 μs simulation. Liposome preparation and circular dichroism (CD) spectroscopy. Small unilamellar vesicles (SUV) were produced and far-UV spectra of the peptides obtained as described previously^20 using a Chirascan Plus spectrometer (Applied Photophysics, Leatherhead, UK) with samples maintained at 310 K. For liposome experiments the lipid concentration was 5 mM and a peptide to lipid molar ratio of 1:100 was maintained while the SDS micelles concentration was 20 mM with 200 μM peptide. Electrophysiology experiments (Patch-clamp). Patch clamp experiments were performed using the Port-a-Patch® (Nanion Technologies GmbH, Munich, Germany) with giant unilamellar vesicles (GUVs) composed of DPhPE/DPhPG (60:40, mol:mol) or DPhPG prepared by the electroformation method using the Nanion Vesicle Prep Pro setup (Nanion Technologies GmbH, Munich, Germany) as described previously.^20
as §1

[9] = KP13368, Serum (10% fetal bovine serum)
[10] = KP13368, untitled table, medium/unit not given, values match RPMI of Table 2
[11] = untitled table, medium/unit not given, values match RPMI of Table 2, in µg/mL
[12] = Klebsiella pneumoniae KP13368, (MH)
[13] = Klebsiella pneumoniae KP13368, (RPMI)

| MIC, Stability in serum (MH) ([1]; KP13368, No serum) | MIC, Stability in serum (MH) [1, 9] | MIC on initial panels ([1]; KP13368) | MIC [1, 10] | MIC, Stability in serum (MH) ([2]; No serum) [µg/mL] | MIC, Stability in serum (MH) ([2]; Serum (10% fetal bovine serum)) [µg/mL] | MIC on initial panels ([2]; in µg/mL) | MIC [2, 11] | MIC on initial panels [3] | MIC [3] [µg/mL] | MIC [1, 12] | MIC [1, 13] | MIC ([2]; (MH), in µg/mL) | SMILES | MIC on initial panels [4] | MIC [4] | Toxicity HEK293 [5] | Toxicity HEK293 (EC50), Peptide concentration [5] | Toxicity A549 (EC50), Peptide concentration [6] | Toxicity Calu-3 (EC50), Peptide concentration [7] | Peptide concentration necessary to start membrane activity ([8]; DPhPG) [µM] | further results |
| --- | --- | --- | --- | --- | --- | --- | --- | --- | --- | --- | --- | --- | --- | --- | --- | --- | --- | --- | --- | --- | --- |
| 4 | 4 | 4 | 8-16 | 4 (≈ 1.48 µM) | 4 (≈ 1.48 µM) | 4 | 4-8 | 16 | 1 (≈ 0.369 µM) | 4 | 8-16 | 4 | CC(C)C[C@@H](NC(=O)[C@@H](Cc1ccc(O)cc1)NC(=O)[C@@H](Cc1c[nH]cn1)NC(=O)[C@H](NC(=O)[C@@H](CC(C)C)NC(=O)[C@@H](C)NC(=O)[C@@H](C)NC(=O)[C@@H](CCCCN)NC(=O)CNC(=O)[C@H](NC(=O)[C@@H](Cc1c[nH]cn1)NC(=O)[C@@H](CCCCN)NC(=O)CNC(=O)[C@H](NC(=O)[C@@H](Cc1c[nH]cn1)NC(=O)[C@@H](C)NC(=O)[C@@H](C)NC(=O)[C@@H](CCCCN)NC(=O)[C@@H](CCCCN)NC(=O)[C@@H](Cc1ccccc1)NC(=O)[C@@H](Cc1ccccc1)NC(=O)[C@@H](CO)NC(=O)CNC(=O)[C@@H](Cc1c[nH]c2ccccc12)NC(=O)CN)C(C)C)C(C)C)[C@H](C)O)C(N)=O [D-pleurocidin] (HELM PEPTIDE1{G.[dW].G.[dS].[dF].[dF].[dK].[dK].[dA].[dA].[dH].[dV].G.[dK].[dH].[dV].G.[dK].[dA].[dA].[dL].[dT].[dH].[dY].[dL].[am]}$$$$V2.0; N-terminus assumed) | 8-16 | 16-32 | 61.4 ± 3.9 | (61.4 ± 3.9) μg/ml | (79.3 ± 7.2) μg/ml | (41.9 ± 1.8) μg/ml |  | MIC ([2]; (RPMI), in µg/mL): 4-8 |
| 4 | 8 | 4-8 | 32 | 4 (≈ 1.48 µM) | 8 (≈ 2.95 µM) | 4 | 32 | 16 | 4 (≈ 1.48 µM) | 4-8 | 32 | 4 | CC(C)C[C@H](NC(=O)[C@H](Cc1ccc(O)cc1)NC(=O)[C@H](Cc1c[nH]cn1)NC(=O)[C@@H](NC(=O)[C@H](CC(C)C)NC(=O)[C@H](C)NC(=O)[C@H](C)NC(=O)[C@H](CCCCN)NC(=O)CNC(=O)[C@@H](NC(=O)[C@H](Cc1c[nH]cn1)NC(=O)[C@H](CCCCN)NC(=O)CNC(=O)[C@@H](NC(=O)[C@H](Cc1c[nH]cn1)NC(=O)[C@H](C)NC(=O)[C@H](C)NC(=O)[C@H](CCCCN)NC(=O)[C@H](CCCCN)NC(=O)[C@H](Cc1ccccc1)NC(=O)[C@H](Cc1ccccc1)NC(=O)[C@H](CO)NC(=O)CNC(=O)[C@H](Cc1c[nH]c2ccccc12)NC(=O)CN)C(C)C)C(C)C)[C@@H](C)O)C(N)=O [Pleurocidin, reference compound] (H-GWGSFFKKAAHVGKHVGKAALTHYL-NH2; N-terminus assumed) |  |  | 87.5 ± 11.1 | (87.5 ± 11.1) μg/ml |  |  | 5 | MIC, Peptide concentration ([1]; NCTC 13368): 3 µg/mL (≈ 1.11 µM); MIC ([2]; (RPMI), in µg/mL): 32; Peptide concentration necessary to start membrane activity ([8]; DPhPE/DPhPG): 10 µM |
| 2 | 4 | 2-4 | 32 | 4 (≈ 1.42 µM) | 2 (≈ 0.709 µM) | 2 | 32 | 4 | 8 (≈ 2.83 µM) |  |  |  | CC(C)C[C@H](NC(=O)[C@H](Cc1ccc(O)cc1)NC(=O)[C@H](Cc1c[nH]cn1)NC(=O)[C@@H](NC(=O)[C@H](CC(C)C)NC(=O)[C@H](C)NC(=O)[C@H](C)NC(=O)[C@H](CCCNC(=N)N)NC(=O)CNC(=O)[C@@H](NC(=O)[C@H](Cc1c[nH]cn1)NC(=O)[C@H](CCCNC(=N)N)NC(=O)CNC(=O)[C@@H](NC(=O)[C@H](Cc1c[nH]cn1)NC(=O)[C@H](C)NC(=O)[C@H](C)NC(=O)[C@H](CCCNC(=N)N)NC(=O)[C@H](CCCNC(=N)N)NC(=O)[C@H](Cc1ccccc1)NC(=O)[C@H](Cc1ccccc1)NC(=O)[C@H](CO)NC(=O)CNC(=O)[C@H](Cc1c[nH]c2ccccc12)NC(=O)CN)C(C)C)C(C)C)[C@@H](C)O)C(N)=O [Pleurocidin-KR] (H-GWGSFFRRAAHVGRHVGRAALTHYL-NH2; N-terminus assumed) |  |  | 40.1 ± 4.1 | (40.1 ± 4.1) μg/ml |  |  | 7.5 | MIC, Peptide concentration [2]: 2 µg/mL (≈ 0.709 µM); Peptide concentration necessary to start membrane activity ([8]; DPhPE/DPhPG): 10 µM |
| 8 | 16 | 4-8 | 32 | 16 (≈ 6.03 µM) | 8 (≈ 3.01 µM) | 4-8 | 32 | 64-128 | > 32 |  |  |  | CC(C)C[C@H](NC(=O)[C@H](Cc1ccc(O)cc1)NC(=O)[C@H](Cc1c[nH]cn1)NC(=O)[C@@H](NC(=O)[C@H](CC(C)C)NC(=O)[C@H](C)NC(=O)[C@H](C)NC(=O)[C@H](CCCCN)NC(=O)CNC(=O)[C@H](C)NC(=O)[C@H](Cc1c[nH]cn1)NC(=O)[C@H](CCCCN)NC(=O)CNC(=O)[C@H](C)NC(=O)[C@H](Cc1c[nH]cn1)NC(=O)[C@H](C)NC(=O)[C@H](C)NC(=O)[C@H](CCCCN)NC(=O)[C@H](CCCCN)NC(=O)[C@H](Cc1ccccc1)NC(=O)[C@H](Cc1ccccc1)NC(=O)[C@H](CO)NC(=O)CNC(=O)[C@H](Cc1c[nH]c2ccccc12)NC(=O)CN)[C@@H](C)O)C(N)=O [Pleurocidin-VA] (H-GWGSFFKKAAHAGKHAGKAALTHYL-NH2; N-terminus assumed) |  |  | ~400 | (~400) μg/ml |  |  | 2.5 |  |

| SMILES | MIC, Stability in serum (MH) ([1]; KP13368, No serum) | MIC, Stability in serum (MH) [1, 9] | MIC on initial panels ([1]; KP13368) | MIC [1, 10] | MIC, Stability in serum (MH) ([2]; No serum) [µg/mL] | MIC, Stability in serum (MH) ([2]; Serum (10% fetal bovine serum)) [µg/mL] | MIC on initial panels ([2]; in µg/mL) | MIC [2, 11] | MIC on initial panels [3] | MIC [3] [µg/mL] | MIC [1, 12] | MIC [1, 13] | MIC ([2]; (MH), in µg/mL) | MIC on initial panels [4] | MIC [4] | Toxicity HEK293 [5] | Toxicity HEK293 (EC50), Peptide concentration [5] | Toxicity A549 (EC50), Peptide concentration [6] | Toxicity Calu-3 (EC50), Peptide concentration [7] | Peptide concentration necessary to start membrane activity ([8]; DPhPG) [µM] | further results |
| --- | --- | --- | --- | --- | --- | --- | --- | --- | --- | --- | --- | --- | --- | --- | --- | --- | --- | --- | --- | --- | --- |
| CC(C)C[C@@H](NC(=O)[C@@H](Cc1ccc(O)cc1)NC(=O)[C@@H](Cc1c[nH]cn1)NC(=O)[C@H](NC(=O)[C@@H](CC(C)C)NC(=O)[C@@H](C)NC(=O)[C@@H](C)NC(=O)[C@@H](CCCNC(=N)N)NC(=O)CNC(=O)[C@H](NC(=O)[C@@H](Cc1c[nH]cn1)NC(=O)[C@@H](CCCNC(=N)N)NC(=O)CNC(=O)[C@H](NC(=O)[C@@H](Cc1c[nH]cn1)NC(=O)[C@@H](C)NC(=O)[C@@H](C)NC(=O)[C@@H](CCCNC(=N)N)NC(=O)[C@@H](CCCNC(=N)N)NC(=O)[C@@H](Cc1ccccc1)NC(=O)[C@@H](Cc1ccccc1)NC(=O)[C@@H](CO)NC(=O)CNC(=O)[C@@H](Cc1c[nH]c2ccccc12)NC(=O)CN)C(C)C)C(C)C)[C@H](C)O)C(N)=O [D-pleurocidin-KR] (HELM PEPTIDE1{G.[dW].G.[dS].[dF].[dF].[dR].[dR].[dA].[dA].[dH].[dV].G.[dR].[dH].[dV].G.[dR].[dA].[dA].[dL].[dT].[dH].[dY].[dL].[am]}$$$$V2.0; N-terminus assumed) | 2 | 1 | 2 | 4 | 2 (≈ 0.709 µM) | 0.5 (≈ 0.177 µM) | 2 | 4 | 4 | 1 (≈ 0.354 µM) |  |  |  | 16 | 33 | 36.4 ± 4.3 | (36.4 ± 4.3) μg/ml | (56.5 ± 4.5) μg/ml | (39.1 ± 1.8) μg/ml |  |  |
